Assay results taken from patent US20250263395A1, “COMPOUNDS THAT MEDIATE PROTEIN DEGRADATION AND METHODS OF USE THEREOF” (Monte Rosa Therapeutics AG, priority 2022, published 2025).
pKi: −log10 of the molar value.

Legend:
CDK2 = CDK2 (Homo sapiens (Human), UniProt P24941); test: CDK2 NanoBiT assay (HiBiT-tagged CDK2 degradation); format: cell-based; conditions: HEK293, HEK293 clonal line, C-terminal HiBiT tag on CDK2, LgBiT; 24 hours
Experimental: Example 145. NanoBiT Assay
A HEK293 clonal line with a CRISPR knock-in C-terminal HiBiT tag on CDK2 and stably expressing LgBiT protein was obtained from Promega (Madison, WI). Cells were plated at 5000 cells per well using Multiflo (BioTek) in 384-well white solid bottom plates (Corning, 3570BC) in 25 ul volume in DMEM media (DMEM, high glucose, HEPES, no phenol red (ThermoFisher Scientific, 21063029)) containing 10% FBS (Corning, 35-075-CV), 1% Peniciliin/Streptomycin ((ThermoFisher Scientific, 15140-122), and 1% Endurazine (Nano-Glo Endurazine Live Cell Substrate (Promega, N2571)). Cells were incubated for 16 hours at 37 C, 5% CO2. 75 nL of a compound at 30 μM were dosed into the plate using an Echo® 650 liquid handler (Labcyte). Cells were incubated at 37° C., 5% CO2 for 24 hours and then signal was read on a Pherastar FSX using “LUM plus” optic module.
Analysis was performed in Scinamic (Scinamic, Cambridge, MA). Luminescence response (R) was calculated by the formula: response=100*(S−N)/(P−N) where S is the signal of the well, N and P the mean negative and positive control values respectively of the same plate. The luminescence response was then fitted in Scinamic using a 3-parameter agonist logistic fit (hillslope=1, EC50>0, top/bottom unconstrained).

CRBN-DDB1 = CRBN-DDB1 (Homo sapiens (Human), UniProt Q96SW2); test: CRBN HTRF assay (Cy5-Thalidomide probe displacement); format: binding; conditions: CRBN-DDB1 2.5 nM, Cy5-Thalidomide 100 nM, 30 min; Ki from geometric mean IC50 by Cheng-Prusoff
Experimental: Compound activity was monitored in a Homogenous Time-Resolved Fluorescence (HTRF) assay using 1-[5-({2-[2-(2-{[2-(2,6-dioxopiperidin-3-yl)-1,3-dioxo-2,3-dihydro-1H-isoindol-4-yl]oxy}acetamido)ethoxy]ethyl}carbamoyl)pentyl]-3,3-dimethyl-2-[(1E,3E)-5-[(2E)-1,3,3-trimethyl-5-sulfo-2,3-dihydro-1H-indol-2-ylidene]penta-1,3-dien-1-yl]-3H-indol-1-ium-5-sulfonate as a fluorescent probe. Biochemical assays were conducted in Greiner white 384 well HiBase plates (Cat. No 784075-25) in 10 μL total volume. A one pot detection solution of CRBN-DDB1 (2.5 nM), Anti-His Terbium Cryptate Gold (1×, PerkinElmer Cat. #: 61HI2TLB), and Cy5-Thalidomide (100 nM, Tenova Cat.: T52461) was prepared in 20 mM HEPES, 20 mM NaCl, 0.2 mM TCEP, 0.2 mM EDTA, and 0.005% Tween20 was dispensed to each assay plate. Compounds were stored in dry, ambient temperatures at 10 mM. A 10-point, 1:3 dilution series was prepared from 10 mM stock concentrations in Echo-compatible LDV plates. 10 nL of each compound dilution series was dispensed into assays wells using an Echo 650 (Labcyte inc. USA). 10 nL of 10 mM Lenalidomide was transferred into the active-control wells for the assay and 10 nL of DMSO was transferred into the neutral-control wells. The assay was then allowed to incubate for 30 min at ambient temperature after transferring compound. Plate measurements were taken on a Pherastar FSX (BMG Labtech, Germany) using the HTRF Red filter (Ex. 337 nm, em1: 620 nm, em2: 665 nm) (Flashes: 50, Integration time: 60-400 us, Z-height: 10 mm, Ratio-multiplier: 10,000). The HTRF signal was then subsequently normalized to the neutral and active controls. Analysis and IC50 values were derived using KNIME analytics (KNIME Zurich) transformation and fitting within Collaborative Drug Discovery (Collaborative Drug Discovery USA). Ki was derived from the geometric mean of the IC50 values using the Cheng-Prustoff transformation.

Chain of CRBN-DDB1 (Q96SW2 whole entry): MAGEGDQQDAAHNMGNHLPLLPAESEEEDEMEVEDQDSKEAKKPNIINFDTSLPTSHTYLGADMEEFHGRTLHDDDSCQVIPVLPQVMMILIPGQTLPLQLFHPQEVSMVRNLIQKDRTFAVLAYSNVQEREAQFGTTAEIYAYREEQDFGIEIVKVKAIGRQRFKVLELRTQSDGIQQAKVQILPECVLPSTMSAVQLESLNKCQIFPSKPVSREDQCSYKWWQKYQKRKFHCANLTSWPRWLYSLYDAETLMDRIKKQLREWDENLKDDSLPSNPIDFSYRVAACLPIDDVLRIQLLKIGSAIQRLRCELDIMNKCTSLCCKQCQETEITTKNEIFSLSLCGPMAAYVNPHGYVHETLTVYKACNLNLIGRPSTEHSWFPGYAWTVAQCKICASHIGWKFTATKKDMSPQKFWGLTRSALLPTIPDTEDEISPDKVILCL
Chain of CRBN-DDB1 (Q16531 whole entry partner): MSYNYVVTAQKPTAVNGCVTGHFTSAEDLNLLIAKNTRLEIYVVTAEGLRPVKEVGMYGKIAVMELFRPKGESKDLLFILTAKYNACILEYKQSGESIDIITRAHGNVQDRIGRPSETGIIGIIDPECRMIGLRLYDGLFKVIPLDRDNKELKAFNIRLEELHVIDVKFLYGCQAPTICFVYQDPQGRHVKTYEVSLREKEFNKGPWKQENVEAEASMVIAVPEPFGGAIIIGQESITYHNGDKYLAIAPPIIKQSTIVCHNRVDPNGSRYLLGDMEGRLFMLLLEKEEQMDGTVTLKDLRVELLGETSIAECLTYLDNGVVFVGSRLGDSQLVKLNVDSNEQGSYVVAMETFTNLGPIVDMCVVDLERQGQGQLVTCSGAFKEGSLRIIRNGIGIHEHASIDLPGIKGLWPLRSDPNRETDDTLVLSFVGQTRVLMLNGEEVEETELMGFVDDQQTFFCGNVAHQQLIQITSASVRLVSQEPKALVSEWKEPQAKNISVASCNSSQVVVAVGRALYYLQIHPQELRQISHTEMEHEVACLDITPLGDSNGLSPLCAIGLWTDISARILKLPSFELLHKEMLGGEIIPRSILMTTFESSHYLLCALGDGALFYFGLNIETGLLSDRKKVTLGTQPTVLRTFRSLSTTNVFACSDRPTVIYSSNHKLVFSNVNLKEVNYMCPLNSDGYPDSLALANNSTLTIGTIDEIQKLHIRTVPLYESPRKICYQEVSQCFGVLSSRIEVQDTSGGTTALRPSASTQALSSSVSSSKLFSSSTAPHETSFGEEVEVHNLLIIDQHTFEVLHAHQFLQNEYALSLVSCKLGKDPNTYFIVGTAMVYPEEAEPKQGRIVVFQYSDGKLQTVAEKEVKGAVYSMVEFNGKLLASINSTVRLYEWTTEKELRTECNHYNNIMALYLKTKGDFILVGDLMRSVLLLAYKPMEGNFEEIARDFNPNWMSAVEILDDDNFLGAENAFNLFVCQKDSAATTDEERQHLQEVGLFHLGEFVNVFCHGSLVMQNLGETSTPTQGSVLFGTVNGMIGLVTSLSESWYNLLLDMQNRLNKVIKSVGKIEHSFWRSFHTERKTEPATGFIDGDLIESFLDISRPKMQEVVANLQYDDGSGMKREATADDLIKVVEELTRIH

Dmax (CDK2) [%]	pKi (CRBN-DDB1)	SMILES
10 to 50	≥ 7.00	CN(C)C(=O)N1CC[C@@H](OC(=O)NC2CN(c3cc(F)c(C4CCC(=O)NC4=O)c(F)c3)C2)C1 (stereo partly drawn) [Compound 18, (R)-1-(dimethylcarbamoyl)pyrrolidin-3-yl (1-(4-(2,6-dioxopiperidin-3-yl)-3,5-difluorophenyl)azetidin-3-yl)carbamate]
10 to 50	≥ 7.00	CN(C)C(=O)N1CCC(OC(=O)NC2CN(c3cc(F)c(C4CCC(=O)NC4=O)c(F)c3)C2)CC1 (centres unmarked) [Compound 19, 1-(dimethylcarbamoyl)piperidin-4-yl (1-(4-(2,6-dioxopiperidin-3-yl)-3,5-difluorophenyl)azetidin-3-yl)carbamate]
10 to 50	≥ 7.00	N#Cc1ccc(C(=O)N2CC(OC(=O)NC3CN(c4cc(F)c(C5CCC(=O)NC5=O)c(F)c4)C3)C2)cc1 (centres unmarked) [Compound 20, 1-(4-cyanobenzoyl)azetidin-3-yl (1-(4-(2,6-dioxopiperidin-3-yl)-3,5-difluorophenyl)azetidin-3-yl)carbamate]
10 to 50	≥ 7.00	COc1ccc(C(=O)N2CC(OC(=O)NC3CN(c4cc(F)c(C5CCC(=O)NC5=O)c(F)c4)C3)C2)cc1 (centres unmarked) [Compound 21, 1-(4-methoxybenzoyl)azetidin-3-yl (1-(4-(2,6-dioxopiperidin-3-yl)-3,5-difluorophenyl)azetidin-3-yl)carbamate]
50 to 80	6.00 to 7.00	O=C1CCC(c2c(F)cc(N3CC(NC(=O)OC4CN(C(=O)c5ccc(F)cc5)C4)C3)cc2F)C(=O)N1 (centres unmarked) [Compound 22, 1-(4-fluorobenzoyl)azetidin-3-yl (1-(4-(2,6-dioxopiperidin-3-yl)-3,5-difluorophenyl)azetidin-3-yl)carbamate]
50 to 80	≥ 7.00	Cc1ccc(C(=O)N2CC(OC(=O)NC3CN(c4cc(F)c(C5CCC(=O)NC5=O)c(F)c4)C3)C2)cc1 (centres unmarked) [Compound 23, 1-(4-methylbenzoyl)azetidin-3-yl (1-(4-(2,6-dioxopiperidin-3-yl)-3,5-difluorophenyl)azetidin-3-yl)carbamate]
10 to 50	≥ 7.00	O=C1CCC(c2c(F)cc(N3CC(NC(=O)OC4CN(C(=O)c5ccccc5)C4)C3)cc2F)C(=O)N1 (centres unmarked) [Compound 24, 1-benzoylazetidin-3-yl (1-(4-(2,6-dioxopiperidin-3-yl)-3,5-difluorophenyl)azetidin-3-yl)carbamate]
10 to 50	≥ 7.00	CN(C(=O)N1CC[C@@H](OC(=O)NC2CN(c3cc(F)c(C4CCC(=O)NC4=O)c(F)c3)C2)C1)C1CC1 (stereo partly drawn) [Compound 25, (R)-1-(cyclopropyl(methyl)carbamoyl)pyrrolidin-3-yl (1-(4-(2,6-dioxopiperidin-3-yl)-3,5-difluorophenyl)azetidin-3-yl)carbamate]
50 to 80	≥ 7.00	O=C1CCC(c2c(F)cc(N3CC(NC(=O)OC4CN(C(=O)c5ccc(Cl)cc5)C4)C3)cc2F)C(=O)N1 (centres unmarked) [Compound 26, 1-(4-chlorobenzoyl)azetidin-3-yl (1-(4-(2,6-dioxopiperidin-3-yl)-3,5-difluorophenyl)azetidin-3-yl)carbamate]
10 to 50	≥ 7.00	CN(C)C(=O)N1CC[C@H](OC(=O)NC2CN(c3cc(F)c(C4CCC(=O)NC4=O)c(F)c3)C2)C1 (stereo partly drawn) [Compound 27, (S)-1-(dimethylcarbamoyl)pyrrolidin-3-yl (1-(4-(2,6-dioxopiperidin-3-yl)-3,5-difluorophenyl)azetidin-3-yl)carbamate]
> 80	≥ 7.00	O=C1CCC(c2c(Cl)cc(N3CC(NC(=O)OCC4CC5(CCC5)C4)C3)cc2Cl)C(=O)N1 (centres unmarked) [Compound 28, spiro[3.3]heptan-2-ylmethyl (1-(3,5-dichloro-4-(2,6-dioxopiperidin-3-yl)phenyl)azetidin-3-yl)carbamate]
50 to 80	≥ 7.00	Cc1cccnc1N1CC(OC(=O)NC2CN(c3cc(F)c(C4CCC(=O)NC4=O)c(F)c3)C2)C1 (centres unmarked) [Compound 29, 1-(3-methylpyridin-2-yl)azetidin-3-yl (1-(4-(2,6-dioxopiperidin-3-yl)-3,5-difluorophenyl)azetidin-3-yl)carbamate]
50 to 80	≥ 7.00	O=C1CCC(c2c(F)cc(N3CC(NC(=O)OC4CN(C(=O)N5CCC5)C4)C3)cc2F)C(=O)N1 (centres unmarked) [Compound 30, 1-(azetidine-1-carbonyl)azetidin-3-yl (1-(4-(2,6-dioxopiperidin-3-yl)-3,5-difluorophenyl)azetidin-3-yl)carbamate]
50 to 80	≥ 7.00	O=C1CCC(c2c(F)cc(N3CC(NC(=O)OC4CN(C(=O)N5CC6(CCC6)C5)C4)C3)cc2F)C(=O)N1 (centres unmarked) [Compound 31, 1-(2-azaspiro[3.3]heptane-2-carbonyl)azetidin-3-yl (1-(4-(2,6-dioxopiperidin-3-yl)-3,5-difluorophenyl)azetidin-3-yl)carbamate]
50 to 80	≥ 7.00	O=C1CCC(c2c(F)cc(N3CC(NC(=O)OC4CN(C(=O)N5CCC56CCC6)C4)C3)cc2F)C(=O)N1 (centres unmarked) [Compound 33, 1-(1-azaspiro[3.3]heptane-1-carbonyl)azetidin-3-yl (1-(4-(2,6-dioxopiperidin-3-yl)-3,5-difluorophenyl)azetidin-3-yl)carbamate]
50 to 80	6.00 to 7.00	O=C1CCC(c2c(F)cc(N3CC(NC(=O)OCCc4ccccc4)C3)cc2F)C(=O)N1 (centres unmarked) [Compound 34, phenethyl (1-(4-(2,6-dioxopiperidin-3-yl)-3,5-difluorophenyl)azetidin-3-yl)carbamate]
> 80	6.00 to 7.00	O=C1CCC(c2c(F)cc(N3CC(NC(=O)OCc4ccc(OC(F)(F)F)cc4)C3)cc2F)C(=O)N1 (centres unmarked) [Compound 35, 4-(trifluoromethoxy)benzyl (1-(4-(2,6-dioxopiperidin-3-yl)-3,5-difluorophenyl)azetidin-3-yl)carbamate]
50 to 80	≥ 7.00	O=C1CCC(c2c(F)cc(N3CC(NC(=O)OC4CN(C(=O)N5CCCCC5)C4)C3)cc2F)C(=O)N1 (centres unmarked) [Compound 36, 1-(piperidine-1-carbonyl)azetidin-3-yl (1-(4-(2,6-dioxopiperidin-3-yl)-3,5-difluorophenyl)azetidin-3-yl)carbamate]
50 to 80	6.00 to 7.00	O=C1CCC(c2c(F)cc(N3CC(NC(=O)OCc4ccccc4)C3)cc2F)C(=O)N1 (centres unmarked) [Compound 37, benzyl (1-(4-(2,6-dioxopiperidin-3-yl)-3,5-difluorophenyl)azetidin-3-yl)carbamate]
> 80	≥ 7.00	O=C1CCC(c2c(F)cc([C@@H]3C[C@H]3NC(=O)OCC3CC4(CCC4)C3)cc2F)C(=O)N1 (some centres unmarked) [Compound 38]
50 to 80	≥ 7.00	CC(C)O[C@H]1C[C@@H](OC(=O)NC2CN(c3cc(F)c(C4CCC(=O)NC4=O)c(F)c3)C2)C1 (some centres unmarked) [Compound 39, (1s, 3s)-3-isopropoxycyclobutyl (1-(4-(2,6-dioxopiperidin-3-yl)-3,5-difluorophenyl)azetidin-3-yl)carbamate]
50 to 80	≥ 7.00	CN(C(=O)N1CC(OC(=O)NC2CN(c3cc(F)c(C4CCC(=O)NC4=O)c(F)c3)C2)C1)C1CC1 (centres unmarked) [Compound 40, 1-(cyclopropyl(methyl)carbamoyl)azetidin-3-yl (1-(4-(2,6-dioxopiperidin-3-yl)-3,5-difluorophenyl)azetidin-3-yl)carbamate]
